Experimental data as given in ChEMBL document CHEMBL4420075, “Seriniquinones, melanoma-specific anticancer agents” (2016).

Key:
Assay type in all cases: functional
NCI-H322M = assay: Growth inhibition of human NCI-H322M cells assessed as cell growth incubated for 48 hrs by sulforhodamine B assay; design: scale not given: the % may be the effect or the level left
NCI-H460 = assay: Growth inhibition of human NCI-H460 cells assessed as cell growth incubated for 48 hrs by sulforhodamine B assay; design: concentration or dose not given beside the values
HCC 2998 = assay: Growth inhibition of human HCC2998 cells assessed as cell growth incubated for 48 hrs by sulforhodamine B assay; design: concentration or dose not given beside the values
TK-10 = assay: Growth inhibition of human TK10 cells assessed as cell growth incubated for 48 hrs by sulforhodamine B assay; design: concentration or dose not given beside the values
SF-295 = assay: Growth inhibition of human SF295 cells assessed as cell growth incubated for 48 hrs by sulforhodamine B assay; design: concentration or dose not given beside the values
UO-31 = assay: Growth inhibition of human UO31 cells assessed as cell growth incubated for 48 hrs by sulforhodamine B assay; design: concentration or dose not given beside the values
U-251 = assay: Growth inhibition of human U251 cells assessed as cell growth incubated for 48 hrs by sulforhodamine B assay; design: concentration or dose not given beside the values
HOP-62 = assay: Growth inhibition of human HOP62 cells assessed as cell growth incubated for 48 hrs by sulforhodamine B assay; design: concentration or dose not given beside the values
LOX IMVI = assay: Growth inhibition of human LOXIMVI cells assessed as cell growth incubated for 48 hrs by sulforhodamine B assay; design: concentration or dose not given beside the values
HCT-15 = assay: Growth inhibition of human HCT15 cells assessed as cell growth incubated for 48 hrs by sulforhodamine B assay; design: scale not given: the % may be the effect or the level left
HT-29 = assay: Growth inhibition of human HT-29 cells assessed as cell growth incubated for 48 hrs by sulforhodamine B assay; design: concentration or dose not given beside the values
MDA-MB-231 = assay: Growth inhibition of human MDA-MB-231 cells assessed as cell growth incubated for 48 hrs by sulforhodamine B assay; design: concentration or dose not given beside the values
OVCAR-3 = assay: Growth inhibition of human OVCAR3 cells assessed as cell growth incubated for 48 hrs by sulforhodamine B assay; design: concentration or dose not given beside the values
RPMI-8226 = assay: Growth inhibition of human RPMI8226 cells assessed as cell growth incubated for 48 hrs by sulforhodamine B assay; design: concentration or dose not given beside the values
Hs-578T = assay: Growth inhibition of human Hs 578T cells assessed as cell growth incubated for 48 hrs by sulforhodamine B assay; design: concentration or dose not given beside the values
SNB-75 = assay: Growth inhibition of human SNB75 cells assessed as cell growth incubated for 48 hrs by sulforhodamine B assay; design: concentration or dose not given beside the values
COLO 205 = assay: Growth inhibition of human COLO205 cells assessed as cell growth incubated for 48 hrs by sulforhodamine B assay; design: concentration or dose not given beside the values
K562 = assay: Growth inhibition of human K562 cells assessed as cell growth incubated for 48 hrs by sulforhodamine B assay; design: concentration or dose not given beside the values
NCI-H522 = assay: Growth inhibition of human NCI-H522 cells assessed as cell growth incubated for 48 hrs by sulforhodamine B assay; design: concentration or dose not given beside the values
A498 = assay: Growth inhibition of human A498 cells assessed as cell growth incubated for 48 hrs by sulforhodamine B assay; design: concentration or dose not given beside the values
OVCAR-5 = assay: Growth inhibition of human OVCAR5 cells assessed as cell growth incubated for 48 hrs by sulforhodamine B assay; design: scale not given: the % may be the effect or the level left
A549 = assay: Growth inhibition of human A549/ATCC cells assessed as cell growth incubated for 48 hrs by sulforhodamine B assay; design: concentration or dose not given beside the values
MDA-MB-435 = assay: Growth inhibition of human MDA-MB-435 cells assessed as cell growth incubated for 48 hrs by sulforhodamine B assay; design: concentration or dose not given beside the values
PC-3 = assay: Growth inhibition of human PC3 cells assessed as cell growth incubated for 48 hrs by sulforhodamine B assay; design: concentration or dose not given beside the values
MDA-MB-468 = assay: Growth inhibition of human MDA-MB-468 cells assessed as cell growth incubated for 48 hrs by sulforhodamine B assay; design: concentration or dose not given beside the values
MOLT-4 = assay: Growth inhibition of human MOLT4 cells assessed as cell growth incubated for 48 hrs by sulforhodamine B assay; design: concentration or dose not given beside the values
SK-OV-3 = assay: Growth inhibition of human SKOV3 cells assessed as cell growth incubated for 48 hrs by sulforhodamine B assay; design: concentration or dose not given beside the values
HOP-92 = assay: Growth inhibition of human HOP92 cells assessed as cell growth incubated for 48 hrs by sulforhodamine B assay; design: concentration or dose not given beside the values
DU-145 = assay: Growth inhibition of human DU145 cells assessed as cell growth incubated for 48 hrs by sulforhodamine B assay; design: concentration or dose not given beside the values
M14 = assay: Growth inhibition of human M14 cells assessed as cell growth incubated for 48 hrs by sulforhodamine B assay; design: concentration or dose not given beside the values
SNB-19 = assay: Growth inhibition of human SNB19 cells assessed as cell growth incubated for 48 hrs by sulforhodamine B assay; design: concentration or dose not given beside the values
OVCAR-4 = assay: Growth inhibition of human OVCAR4 cells assessed as cell growth incubated for 48 hrs by sulforhodamine B assay; design: concentration or dose not given beside the values
SK-MEL-2 = assay: Growth inhibition of human SK-MEL-2 cells assessed as cell growth incubated for 48 hrs by sulforhodamine B assay; design: concentration or dose not given beside the values
UACC-62 = assay: Growth inhibition of human UACC62 cells assessed as cell growth incubated for 48 hrs by sulforhodamine B assay; design: concentration or dose not given beside the values
SR = assay: Growth inhibition of human SR cells assessed as cell growth incubated for 48 hrs by sulforhodamine B assay; design: concentration or dose not given beside the values
BT-549 = assay: Growth inhibition of human BT549 cells assessed as cell growth incubated for 48 hrs by sulforhodamine B assay; design: concentration or dose not given beside the values
HCT-116 = assay: Growth inhibition of human HCT116 cells assessed as cell growth incubated for 48 hrs by sulforhodamine B assay; design: concentration or dose not given beside the values
Malme-3M = assay: Growth inhibition of human MALME-3M cells assessed as cell growth incubated for 48 hrs by sulforhodamine B assay; design: scale not given: the % may be the effect or the level left
CAKI-1 = assay: Growth inhibition of human Caki1 cells assessed as cell growth incubated for 48 hrs by sulforhodamine B assay; design: concentration or dose not given beside the values
UACC-257 = assay: Growth inhibition of human UACC257 cells assessed as cell growth incubated for 48 hrs by sulforhodamine B assay; design: concentration or dose not given beside the values
SK-MEL-5 = assay: Growth inhibition of human SK-MEL-5 cells assessed as cell growth incubated for 48 hrs by sulforhodamine B assay; design: concentration or dose not given beside the values
SN12C = assay: Growth inhibition of human SN12C cells assessed as cell growth incubated for 48 hrs by sulforhodamine B assay; design: concentration or dose not given beside the values
NCI-H226 = assay: Growth inhibition of human NCI-H226 cells assessed as cell growth incubated for 48 hrs by sulforhodamine B assay; design: concentration or dose not given beside the values
NCI/ADR-RES = assay: Growth inhibition of human NCI/ADR-RES cells assessed as cell growth incubated for 48 hrs by sulforhodamine B assay; design: concentration or dose not given beside the values
SK-MEL-28 = assay: Growth inhibition of human SK-MEL-28 cells assessed as cell growth incubated for 48 hrs by sulforhodamine B assay; design: concentration or dose not given beside the values
HL-60(TB) = assay: Growth inhibition of human HL-60(TB) cells assessed as cell growth incubated for 48 hrs by sulforhodamine B assay; design: concentration or dose not given beside the values
ACHN = assay: Growth inhibition of human ACHN cells assessed as cell growth incubated for 48 hrs by sulforhodamine B assay; design: scale not given: the % may be the effect or the level left
RXF 393 = assay: Growth inhibition of human RXF393 cells assessed as cell growth incubated for 48 hrs by sulforhodamine B assay; design: concentration or dose not given beside the values
SW-620 = assay: Growth inhibition of human SW620 cells assessed as cell growth incubated for 48 hrs by sulforhodamine B assay; design: concentration or dose not given beside the values
MCF7 = assay: Growth inhibition of human MCF7 cells assessed as cell growth incubated for 48 hrs by sulforhodamine B assay; design: concentration or dose not given beside the values
SF-268 = assay: Growth inhibition of human SF268 cells assessed as cell growth incubated for 48 hrs by sulforhodamine B assay; design: concentration or dose not given beside the values
KM12 = assay: Growth inhibition of human KM12 cells assessed as cell growth incubated for 48 hrs by sulforhodamine B assay; design: concentration or dose not given beside the values
786-0 = assay: Growth inhibition of human 786-0 cells assessed as cell growth incubated for 48 hrs by sulforhodamine B assay; design: concentration or dose not given beside the values
SF-539 = assay: Growth inhibition of human SF539 cells assessed as cell growth incubated for 48 hrs by sulforhodamine B assay; design: scale not given: the % may be the effect or the level left
CCRF-CEM = assay: Growth inhibition of human CCRF-CEM cells assessed as cell growth incubated for 48 hrs by sulforhodamine B assay; design: concentration or dose not given beside the values
T47D = assay: Growth inhibition of human T47D cells assessed as cell growth incubated for 48 hrs by sulforhodamine B assay; design: concentration or dose not given beside the values
NCI-H23 = assay: Growth inhibition of human NCI-H23 cells assessed as cell growth incubated for 48 hrs by sulforhodamine B assay; design: concentration or dose not given beside the values
OVCAR-8 = assay: Growth inhibition of human OVCAR8 cells assessed as cell growth incubated for 48 hrs by sulforhodamine B assay; design: concentration or dose not given beside the values

CC(C)(O)C(O)CCc1ccc2c(=O)c3sc4c(=O)c5ccccc5c(=O)c4c3c(=O)c2c1 (stereo not drawn)
Activity (NCI-H322M): -97.48%
Activity (NCI-H460): -52.32%
Activity (HCC 2998): -90.76%
Activity (TK-10): -89.49%
Activity (SF-295): -92.59%
Activity (UO-31): -96.98%
Activity (U-251): -92.83%
Activity (HOP-62): -90.94%
Activity (LOX IMVI): -82.6%
Activity (HCT-15): -61.54%
Activity (HT-29): -46.19%
Activity (MDA-MB-231): -15.99%
Activity (OVCAR-3): -68.52%
Activity (RPMI-8226): -39.84%
Activity (Hs-578T): 1.09%
Activity (SNB-75): -95.74%
Activity (COLO 205): -91.79%
Activity (K562): -59.88%
Activity (NCI-H522): -72.26%
Activity (A498): -87.3%
Activity (OVCAR-5): -85.63%
Activity (A549): -55.33%
Activity (MDA-MB-435): -93.07%
Activity (PC-3): -79.46%
Activity (MDA-MB-468): -83.65%
Activity (MOLT-4): -36.2%
Activity (SK-OV-3): -97.49%
Activity (HOP-92): -32.93%
Activity (DU-145): -94.41%
Activity (M14): -93.82%
Activity (SNB-19): -98.59%
Activity (OVCAR-4): -71.07%
Activity (SK-MEL-2): -72.32%
Activity (UACC-62): -88.01%
Activity (SR): -25%
Activity (BT-549): -96.67%
Activity (HCT-116): -80.84%
Activity (Malme-3M): -93.22%
Activity (CAKI-1): -78.75%
Activity (UACC-257): -92.08%
Activity (SK-MEL-5): -98.07%
Activity (SN12C): -69%
Activity (NCI-H226): -49.62%
Activity (NCI/ADR-RES): -15.35%
Activity (SK-MEL-28): -96.8%
Activity (HL-60(TB)): -46.78%
Activity (ACHN): -96.22%
Activity (RXF 393): -77.25%
Activity (SW-620): -60.32%
Activity (MCF7): -58.78%
Activity (SF-268): -57.54%
Activity (KM12): -76.76%
Activity (786-0): -95.07%
Activity (SF-539): -99.46%
Activity (CCRF-CEM): -29.57%
Activity (T47D): -51.1%
Activity (NCI-H23): -50.82%
Activity (OVCAR-8): -38.88%
